In patent publication US6673795B2, “Pyrimidine, pyrazine and triazane derivatives” (Hoffmann-La Roche Inc., priority 2001, dated 2004):

target: T1, rat mGluR1a receptor (Rattus norvegicus, UniProt P23385); assay: Binding assay for the characterization of mGluR 1 antagonistic properties (tritiated radioligand displacement); details: membranes of HEK 293 cells transiently transfected with rat mGluR1a; tritiated 1-ethyl-2-methyl-6-oxo-4-(1,1,2-tritritio-1,2,4,5-tetrahydro-benzo[d]azepin-3-yl)-1,6-dihydro-pyrimidine-5-carbonitrile at 3 nM; 1 hour at room temperature
T1 construct: expressed in transfected cells; host or cells: HEK 293 cells, transient transfection; membrane preparation
Protocol: Binding Assay for the Characterization of mGluR 1 Antagonistic Properties
Binding assay with tritiated 1-ethyl-2-methyl-6-oxo-4-(1,1,2-tritritio-1,2,4,5-tetrahydro-benzo[d]azepin-3-yl)-1,6-dihydro-pyrimidine-5-carbonitrile: HEK 293 cells were transiently transfected with the rat mGluR^1 a receptor. The cells were collected and washed 3 times with PBS. The cell pellets were frozen at −80° C. Membranes were prepared from HEK 293 cells transfected with the rat mGluR^1 a receptor and used in the binding experiments at 10 μg proteins per assay after resuspension in a HEPES NaOH 20 mM, pH=7.4 binding buffer. 1-Ethyl-2-methyl-6-oxo-4-(1,1,2-tritritio-1,2,4,5-tetrahydro-benzo [d]azepin-3-yl)-1,6-dihydro-pyrimidine-5-carbonitrile (S.A 33.4 Ci/mmol) was used at 3 nM final concentration. The incubation with variable concentrations of potential inhibitors was performed for 1 hour at room temperature, the incubate was then filtered onto GF/B glass fiber filter preincubated 1 hour in PEI 0,1% and washed 3 times with 1 ml of cold binding buffer. The radioactivity retained on the unifilter 96 was counted using a Topcount β counter. After correction for non specific binding the data were normalized and the IC50 value calculated using a 4 parameters logistic equation which was fitted to the inhibition curve.

T1 sequence (P23385 19-1199): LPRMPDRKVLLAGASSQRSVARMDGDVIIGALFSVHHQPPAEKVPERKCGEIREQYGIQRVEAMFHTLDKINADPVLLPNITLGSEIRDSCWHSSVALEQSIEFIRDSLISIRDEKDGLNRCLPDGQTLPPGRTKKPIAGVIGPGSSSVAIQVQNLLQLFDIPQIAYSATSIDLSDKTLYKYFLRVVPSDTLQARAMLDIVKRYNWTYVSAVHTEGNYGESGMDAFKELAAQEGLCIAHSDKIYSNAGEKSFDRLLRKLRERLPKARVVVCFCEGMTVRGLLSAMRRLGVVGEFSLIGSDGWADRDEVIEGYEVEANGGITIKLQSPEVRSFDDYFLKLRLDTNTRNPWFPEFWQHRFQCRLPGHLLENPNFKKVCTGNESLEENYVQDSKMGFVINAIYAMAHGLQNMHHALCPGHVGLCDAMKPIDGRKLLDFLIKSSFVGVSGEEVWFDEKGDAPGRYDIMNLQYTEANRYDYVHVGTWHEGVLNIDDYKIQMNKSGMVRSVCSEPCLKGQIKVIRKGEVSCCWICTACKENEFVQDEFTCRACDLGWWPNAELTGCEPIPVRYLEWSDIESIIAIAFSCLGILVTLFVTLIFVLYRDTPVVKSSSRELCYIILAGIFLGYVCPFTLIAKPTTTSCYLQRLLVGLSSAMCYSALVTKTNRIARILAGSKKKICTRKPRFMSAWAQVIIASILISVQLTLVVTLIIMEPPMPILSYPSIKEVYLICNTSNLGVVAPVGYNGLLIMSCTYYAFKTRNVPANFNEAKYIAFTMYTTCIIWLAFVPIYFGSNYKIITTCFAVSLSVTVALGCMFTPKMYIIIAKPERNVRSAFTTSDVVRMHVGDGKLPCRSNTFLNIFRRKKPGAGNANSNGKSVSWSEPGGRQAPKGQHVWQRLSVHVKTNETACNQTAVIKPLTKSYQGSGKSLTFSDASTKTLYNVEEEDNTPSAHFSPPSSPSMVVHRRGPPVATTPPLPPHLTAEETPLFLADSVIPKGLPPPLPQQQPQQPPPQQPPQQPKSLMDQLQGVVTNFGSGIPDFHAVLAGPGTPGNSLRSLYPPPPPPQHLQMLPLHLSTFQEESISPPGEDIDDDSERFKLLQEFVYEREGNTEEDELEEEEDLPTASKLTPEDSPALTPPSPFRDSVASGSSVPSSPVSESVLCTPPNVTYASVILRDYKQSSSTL

SMILES | IC50 [nM]
N#Cc1c(NCCO)nc(NCCO)nc1N1CCN(c2ccccc2F)CC1 [Example 20, 4-[4-(2-Fluoro-phenyl)-piperazin-1-yl]-2,6-bis-(2-hydroxy-ethylamino)-pyrimidine-5-carbonitrile] | 290
CSc1ccccc1N1CCN(c2nc(NCCO)nc(NCCO)c2C#N)CC1 [Example 25, 2,4-Bis-(2-hydroxy-ethylamino)-6-[4-(2-methylsulfanyl-phenyl)-piperazin-1-yl]-pyrimidine-5-carbonitrile] | 350
N#Cc1c(NCCO)nc(NCCO)nc1N1CCC(c2ccc(F)cc2)CC1 [Example 32, 4-[4-(4-Fluoro-phenyl)-piperidin-1-yl]-2,6-bis-(2-hydroxy-ethylamino)-pyrimidine-5-carbonitrile] | 700
N#Cc1c(NCCO)nc(NCCO)nc1N1CC=C(c2ccc(F)cc2)CC1 [Example 35, 4-[4-(4-Fluoro-phenyl)-3,6-dihydro-2H-pyridin-1-yl]-2,6-bis-(2-hydroxy-ethylamino)-pyrimidine-5-carbonitrile] | 390
N#Cc1c(NCCO)nc(NCCO)nc1N1CCC(C#N)(c2ccccc2)CC1 [Example 37, 4-(4-cyano-4-phenyl-piperidin-1-yl)-2,6-bis-(2-hydroxy-ethylamino)-pyrimidine-5-carbonitrile] | 1800
N#Cc1c(NC2CC2)nc(NC2CC2)nc1N1CCN(c2ccccc2)CC1 [Example 38, 2,4-Bis-cyclopropylamino-6-(4-phenyl-piperazin-1-yl)-pyrimidine-5-carbonitrile] | 64
N#Cc1c(NCc2ccccn2)nc(NCc2ccccn2)nc1N1CCN(c2ccccc2)CC1 [Example 40, 4-(4-Phenyl-piperazin-1-yl)-2,6-bis-[(pyridin-2-ylmethyl)-amino]-pyrimidine-5-carbonitrile] | 1500
N#Cc1c(NCCO)nc(NC2CC2)nc1N1CCN(c2ccccc2)CC1 [Example 47, 2-cyclopropylamino-4-(2-hydroxy-ethylamino)-6-(4-phenyl-piperazin-1-yl)-pyrimidine-5-carbonitrile] | 33
N#Cc1c(NCCO)nc(NCc2cccnc2)nc1N1CCN(c2ccccc2)CC1 [Example 49, 4-(2-Hydroxy-ethylamino)-6-(4-phenyl-piperazin-1-yl)-2-[(pyridin-3-ylmethyl)-amino]-pyrimidine-5-carbonitrile] | 150
N#Cc1c(NCCO)nc(NCc2cccnc2)nc1N1CCC(c2ccccc2)CC1 [Example 54, 4-(2-Hydroxy-ethylamino)-6-(4-phenyl-piperidin-1-yl)-2-[(pyridin-3-ylmethyl)-amino]-pyrimidine-5-carbonitrile] | 30
N#Cc1c(OCC(F)(F)F)nc(NCCO)nc1N1CCC(c2ccccc2)CC1 [Example 60, 2-(2-Hydroxy-ethylamino)-4-(4-phenyl-piperidin-1-yl)-6-(2,2,2-trifluoro-ethoxy)-pyrimidine-5-carbonitrile] | 36
N#Cc1c(Cl)nc(NCC2CC2)nc1N1CCN(c2ccccc2)CC1 [Example 63, 4-chloro-2-(cyclopropylmethyl-amino)-6-(4-phenyl-piperazin-1-yl)-pyrimidine-5-carbonitrile] | 25
CSc1nc(N)nc(N2CCC(c3ccc(F)cc3)CC2)c1C#N [Example 73, 2-Amino-4-[4-(4-fluoro-phenyl)-piperidin-1-yl]-6-methylsulfanyl-pyrimidine-5-carbonitrile] | 159
N#Cc1nnc(NCCO)nc1N1CC=C(c2ccccc2)CC1 [Example 84, 3-(2-Hydroxy-ethylamino)-5-(4-phenyl-3,6-dihydro-2H-pyridin-1-yl)-[1,2,4]triazine-6-carbonitrile] | 660

Next, values leading:

IC50 [nM] | SMILES
42 | Cc1nc(N2CCN(c3ccc(F)cc3)CC2)c([N+](=O)[O-])c(=O)n1CCO [Example 8-1, 6-[4-(4-fluoro-phenyl)-piperazin-1-yl]-3-(2-hydroxy-ethyl)-2-methyl-5-nitro-3H-pyrimidin-4-one]
58 | Cc1nc(OCCO)c([N+](=O)[O-])c(N2CCN(c3ccc(F)cc3)CC2)n1 [Example 8-2, 2-{6-[4-(4-fluoro-phenyl)-piperazin-1-yl]-2-methyl-5-nitro-pyrimidin-4-yloxy}-ethanol]
49 | CCn1c(C)nc(N2CCN(c3ccc(F)cc3)CC2)c([N+](=O)[O-])c1=O [Example 10-1, 3-ethyl-6-[4-(4-fluoro-phenyl)-piperazin-1-yl]-2-methyl-5-nitro-3H-pyrimidin-4-one]
750 | N#Cc1c(NCCO)nc(NCCO)nc1N1CCN(c2ccccc2[N+](=O)[O-])CC1 [Example 29, 2,4-Bis-(2-hydroxy-ethylamino)-6-[4-(2-nitro-phenyl)-piperazin-1-yl]-pyrimidine-5-carbonitrile]
140 | N#Cc1c(Cl)nc(NCCO)nc1N1CCC(c2ccc(F)cc2)CC1 [Example 68, 4-chloro-6-[4-(4-fluoro-phenyl)-piperidin-1-yl]-2-(2-hydroxy-ethylamino)-pyrimidine-5-carbonitrile]
210 | CSc1nc(N)nc(N2CCN(c3ccc(F)cc3)CC2)c1C#N [Example 70, 2-amino-4-[4-(4-fluoro-phenyl)-piperazin-1-yl]-6-methylsulfanyl-pyrimidine-5-carbonitrile]
23 | CCc1nc(N2CCN(c3ccccc3)CC2)c(C#N)nc1C [Example 75-2, 6′-ethyl-5′-methyl-4-phenyl-3,4,5,6-tetrahydro-2H-[1,2′]bipyrazinyl-3′-carbonitrile]
25 | CCc1c(C)nc(N2CCN(c3ccc(F)cc3)CC2)c(C#N)[n+]1[O-] [Example 79-1, 5′-ethyl-4-(4-fluoro-phenyl)-6′-methyl-4′-oxy-3,4,5,6-tetrahydro-2H-[1,2′]bipyrazinyl-3′-carbonitrile]
210 | CCc1nc(N2CCN(c3ccc(F)cc3)CC2)c(C#N)[n+]([O-])c1C [Example 79-2, 6′-ethyl-4-(4-fluoro-phenyl)-5′-methyl-4′-oxy-3,4,5,6-tetrahydro-2H-[1,2′]bipyrazinyl-3′-carbonitrile]

tested on: not given; assay: not given; details: not given

SMILES | melting point
Cc1nc(N2CCC(O)(c3ccccc3)CC2)c([N+](=O)[O-])c(=O)[nH]1 [Example 3, 6-(4-Hydroxy-4-phenyl-piperidin-1-yl)-2-methyl-5-nitro-3H-pyrimidin-4-one] | > 250 °C (dec.)
Cc1nc(N2CCN(c3ccccc3)CC2)c([N+](=O)[O-])c(=O)[nH]1 [Example 4, 2-Methyl-5-nitro-6-(4-phenyl-piperazin-1-yl)-3H-pyrimidin-4-one] | > 250 °C (dec.)
Cc1nc(N2CC=C(c3ccccc3)CC2)c([N+](=O)[O-])c(=O)[nH]1 [Example 6, 2-Methyl-5-nitro-6-(4-phenyl-3,6-dihydro-2H-pyridin-1-yl)-3H-pyrimidin-4-one] | 212 to 216 °C (dec.)
Cc1nc(N2CCC(c3ccc(F)cc3)CC2)c([N+](=O)[O-])c(=O)[nH]1 [Example 7, 6-[4-(4-Fluoro-phenyl)-piperidin-1-yl]-2-methyl-5-nitro-3H-pyrimidin-4-one] | 218 to 221 °C (dec.)
Cc1nc(OCC(F)(F)F)c([N+](=O)[O-])c(N2CCC(c3ccccc3)CC2)n1 [Example 9-2, 2-methyl-5-nitro-4-(4-phenyl-piperidin-1-yl)-6-(2,2,2-trifluoro-ethoxy)-pyrimidine] | 114 to 117 °C
Cc1nc(OC(C)C)c([N+](=O)[O-])c(N2CCN(c3ccc(F)cc3)CC2)n1 [Example 11, 4-[4-(4-Fluoro-phenyl)-piperazin-1-yl]-6-isopropoxy-2-methyl-5-nitro-pyrimidine] | 98 to 100 °C
Cc1nc(OCC(F)(F)F)c([N+](=O)[O-])c(N2CCN(c3ccc(F)cc3)CC2)n1 [Example 12-2, 4-[4-(4-fluoro-phenyl)-piperazin-1-yl]-2-methyl-5-nitro-6-(2,2,2-trifluoro-ethoxy)-pyrimidine] | 92 to 95 °C
Cc1nc(OCC(F)(F)F)c([N+](=O)[O-])c(N2CCC(c3ccc(F)cc3)CC2)n1 [Example 13-2, 4-[4-(4-fluoro-phenyl)-piperidin-1-yl]-2-methyl-5-nitro-6-(2,2,2-trifluoro-ethoxy)-pyrimidine] | 61 to 64 °C
COCCOc1nc(C)nc(N2CCC(c3ccc(F)cc3)CC2)c1[N+](=O)[O-] [Example 14-2, 4-[4-(4-fluoro-phenyl)-piperidin-1-yl]-6-(2-methoxy-ethoxy)-2-methyl-5-nitro-pyrimidine] | 45 to 48 °C
Cc1nc(N2CCC(c3ccc(F)cc3)CC2)c([N+](=O)[O-])c(=O)n1CC#N [Example 16, {4-[4-(4-Fluoro-phenyl)-piperidin-1-yl]-2-methyl-5-nitro-6-oxo-6H-pyrimidin-1-yl}-acetonitrile] | 213 to 215 °C (dec.)
Cc1nc(N2CCN(c3ccc(F)cc3)CC2)c(C#N)nc1-c1ccccc1 [Example 80, 4-(4-Fluoro-phenyl)-6′-methyl-5′-phenyl-3,4,5,6-tetrahydro-2H-[1,2′]bipyrazinyl-3′-carbonitrile] | 117 to 120 °C
N#Cc1ncc(NCCO)nc1N1CCC(c2ccc(F)cc2)CC1 [Example 82, 3-[4-(4-Fluoro-phenyl)-piperidin-1-yl]-5-(2-hydroxy-ethylamino)-pyrazine-2-carbonitrile] | 155 to 158 °C
